We go through one compound from patent US5482971A, “Beta3 -adrenergic agents and their use in pharmaceutical compositions” (American Cyanamid Company, priority 1993, dated 1996).

Assay [1] deals with T1, beta3 -adrenergic receptor (Rattus norvegicus, UniProt P26255).
T1 construct: Rat epididymal fat pads are excised and placed in 0.9% saline; from tissue; host or cells: collagenase-isolated adipocytes from rat epididymal fat pads
Briefly: β3-effect: stimulation of adipocyte lipolysis (rat epididymal fat pad cells, glycerol release). The assay is classed as cell-based. Particulars: rat epididymal adipocytes, 37° C., 30 minutes; concentration giving 50% of the maximum rate of lipolysis of that compound. As to the method:
(§1) Selectivity of a compound is determined using the following procedures.
The β3 -effect of the compounds is determined by their ability to stimulate adipocyte lipolysis. Rat epididymal fat pads are excised and placed in 0.9% saline. Four grams of tissue is transferred to a flask with 20 ml of aerated Krebs-Henseleit bicarbonate (KHB) buffer containing 3% fatty acid-free bovine serum albumin to which 75 mg of crude bacterial collagenase (Worthington) has been added. The tissue is incubated for about 45 minutes at 37° C. with gentle shaking. The cells are then washed three times with two volumes of KHB buffer, filtered through two layers of gauze, and brought to a final volume of 80 ml with KHB buffer. One ml aliquots of the cell suspension is added to plastic test tubes containing the appropriate additions of vehicle or compound. The cells are gassed for 1 minute with 95%O2 -5%CO2, capped, and incubated at 37° C. with continuous shaking for a total of 30 minutes. The reaction is stopped by adding 0.1 ml of 30% perchloric acid and 0.1 ml of chloroform. […] The amount of glycerol generated from the hydrolysis of endogenous triglycerides is determined in a coupled-enzyme spectrophotometric assay. […] The amount of NADH generated, which is proportional to the amount of glycerol, is determined by the increase in absorbance at 340 nm. […]

Assay [2] concerns the target T2, beta1 -adrenergic receptor (Rattus norvegicus, UniProt P18090).
T2 construct: membranes from rat heart; from tissue; host or cells: rat heart membranes
The experiment in a line: Heart binding: β1-effect, membranes from rat heart, [125I]iodocyanopindolol. The settings on record: incubation 1 hour. As to the method: as §1
(§2) Binding assays for β1 -effect are carried out by the use of membranes from rat heart, and β2 -effect by the use of membranes from rat lung by the method described in Neve, et at., J. Pharmacol. Exp. Ther., 1985, 235, 657-664 with the following exceptions:
(§3) 1. the incubation volume is 0.5 ml,
(§4) 2. the incubation time is 1 hour,
(§5) 3. the radioligand is [^125 I]iodocyanopindolol,
(§6) 4. (-)-isoproterenol (50 μM) is used to define specific binding, and
(§7) 5. the filters are washed at 4° C.

For assay [3], the target named is T3, beta2 -adrenergic receptor (Rattus norvegicus, UniProt P10608).
T3 construct: membranes from rat lung; from tissue; host or cells: rat lung membranes
T3 sequence (P10608 whole entry): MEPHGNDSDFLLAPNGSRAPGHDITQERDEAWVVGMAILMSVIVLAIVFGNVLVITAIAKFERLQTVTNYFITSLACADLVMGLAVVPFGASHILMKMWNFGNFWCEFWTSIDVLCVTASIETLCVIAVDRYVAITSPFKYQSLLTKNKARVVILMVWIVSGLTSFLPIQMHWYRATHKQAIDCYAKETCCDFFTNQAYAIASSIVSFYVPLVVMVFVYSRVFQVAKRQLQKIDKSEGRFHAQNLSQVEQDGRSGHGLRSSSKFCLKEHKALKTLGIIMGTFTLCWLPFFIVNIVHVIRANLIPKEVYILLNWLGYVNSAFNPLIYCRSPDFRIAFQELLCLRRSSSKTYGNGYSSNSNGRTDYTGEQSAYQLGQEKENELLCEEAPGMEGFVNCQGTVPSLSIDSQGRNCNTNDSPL
The experiment in a line: Lung binding: β2-effect, membranes from rat lung, [125I]iodocyanopindolol. The settings on record: incubation 1 hour. As for the experimental part: as §1, §2, §3, §4, §5, §6, §7

T2 sequence (P18090 whole entry): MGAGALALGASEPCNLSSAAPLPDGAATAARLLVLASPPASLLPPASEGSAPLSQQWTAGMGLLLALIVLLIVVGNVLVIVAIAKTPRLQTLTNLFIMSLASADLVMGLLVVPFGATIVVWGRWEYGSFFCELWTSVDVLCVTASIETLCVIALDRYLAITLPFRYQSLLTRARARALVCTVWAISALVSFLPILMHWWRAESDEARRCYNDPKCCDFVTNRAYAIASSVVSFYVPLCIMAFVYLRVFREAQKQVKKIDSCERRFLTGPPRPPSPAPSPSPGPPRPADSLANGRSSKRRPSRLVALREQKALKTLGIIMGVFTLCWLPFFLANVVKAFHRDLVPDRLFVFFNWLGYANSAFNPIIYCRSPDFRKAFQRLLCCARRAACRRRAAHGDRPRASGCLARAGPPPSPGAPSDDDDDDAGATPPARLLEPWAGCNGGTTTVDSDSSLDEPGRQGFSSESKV
T1 sequence (P26255 whole entry): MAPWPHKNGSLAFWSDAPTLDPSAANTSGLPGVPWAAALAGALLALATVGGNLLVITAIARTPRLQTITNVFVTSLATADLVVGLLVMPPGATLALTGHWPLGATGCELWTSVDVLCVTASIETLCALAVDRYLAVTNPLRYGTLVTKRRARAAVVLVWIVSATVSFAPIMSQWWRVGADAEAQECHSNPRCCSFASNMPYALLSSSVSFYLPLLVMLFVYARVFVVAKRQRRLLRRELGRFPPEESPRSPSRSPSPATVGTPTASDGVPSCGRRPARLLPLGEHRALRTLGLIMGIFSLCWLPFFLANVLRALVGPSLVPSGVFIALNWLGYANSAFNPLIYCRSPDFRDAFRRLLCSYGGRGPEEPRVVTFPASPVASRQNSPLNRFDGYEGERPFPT

In turn, `C[C@H](CCc1ccc2c(c1)OC(C(=O)O)(C(=O)O)O2)NC[C@H](O)c1cccc(Cl)c1` [Example 3, Disodium (R,R)-5-((3-(2-(3-chlorophenyl)-2-hydroxyethyl)amino)butyl)-1,3-benzodioxole-2,2-dicarboxylate] gave a concentration for a half-maximal effect (EC50) in assay [1] of 17 nM. The concentration for half-maximal inhibition (IC50) in assay [2] was determined as 19000 nM; in assay [3] it was 20000 nM.

What is called EC50 is the concentration needed to bring the measured effect to its halfway point. A lower EC50 goes with a more potent agent. A word on the IC50: it is the midpoint of a concentration-inhibition curve.
